Assay results from patent US20250332112A1, “IONIZABLE CATIONIC LIPIDS FOR LIPID NANOPARTICLES” (GENEVANT SCIENCES GMBH, priority 2022, published 2025).

Experiments:
[1] = Particle characteristics of LNPs containing luciferase mRNA and novel ionizable lipids; type: physicochemical; details: luciferase mRNA LNP 1.6:54.6:32.8:10.9
How it was run: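 LNPs made from PEG-lipid, ionizable lipid, cholesterol and phospholipid in ethanol, T-mixed with luciferase mRNA in 100 mM acetate pH 5. Products were dialysed, concentrated, and dialysed into 5 mM Tris, 10% sucrose, pH 8, then 0.2 μm filtered. mRNA was measured by RiboGreen, and size and polydispersity by dynamic light scattering on a Zetasizer.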

[2] = system: luciferase activity in the liver; assay: Luciferase activity in liver after intravenous luciferase mRNA LNP; type: in vivo; details: 0.5 mg/kg IV, 6 h post-IV administration, BALB/c mice (n = 4)
[3] = Parent ionizable lipid remaining in liver at 6 h after luciferase mRNA LNP (LC-MS); type: in vivo; details: 6 h after IV 0.5 mg/kg Luciferase mRNA LNP
Experimental: (§1) Liver tissues were treated with PBS and homogenized with a FastPrep machine, 3 cycles of 5 m/s×15 s. Homogenates from the PBS-treated control animals was pooled and used for standard curve preparation. Samples were extracted into a deep well plate with 250 μL of an internal suitability standard. Plates were centrifuged for 15 min at 4° C. and 2000 rpm. Analysis was performed using an Agilent 6520 QTOF coupled to an Agilent 1290 UHPLC, using reverse-phase LC separation. Quantitation of the ionizable lipid was by MS/MS against a calibration curve spiked into appropriately matched blank matrix. Calibration used a similar class of synthetic lipid as internal standard.
At 6 h post-dose, some treatment groups reported lower levels of novel ionizable lipid in mouse liver compared to the benchmark (Tables 16-18).

[4] = Particle characteristics of LNPs containing EGFP mRNA and novel ionizable lipids; type: physicochemical; details: EGFP mRNA LNP 1.6:54.6:32.8:10.9
Experimental: The lipid solution contains 4 components: a PEG-conjugated lipid, an ionizable lipid, cholesterol, and a phospholipid (e.g., DSPC). Lipid stocks were prepared using the lipid identities and molar ratios as described, to achieve a total concentration of ˜7 mg/mL in 100% ethanol. […] Equal volumes of the lipid and nucleic acid solutions were blended at a flow rate of 400 mL/min through a T-connector, and diluted with ˜4 volumes of PBS, pH 7.4. Formulations were placed in Slide-A-Lyzer dialysis units (MWCO 10,000) and dialyzed overnight against 10 mM Tris, 500 mM NaCl, pH 8 buffer. Following dialysis, the formulations were concentrated to ˜0.6 mg/mL using VivaSpin concentrator units (MWCO 100,000) and dialyzed overnight against 5 mM Tris, 10% sucrose, pH 8 buffer. Formulations were filtered through a 0.2 μm syringe filter (PES membrane). Nucleic acid concentration was determined by the RiboGreen assay. Particle size and polydispersity were determined using a Malvern Nano Series Zetasizer.
LNP formulations containing novel ionizable lipids all produced stable particles with high encapsulation efficiency (Tables 20-23).

[5] = Parent ionizable lipid remaining in liver at 24 h after EGFP mRNA LNP (LC-MS); type: in vivo; details: 24 h after IV 0.5 mg/kg EGFP mRNA LNP, female BALB/c mice (n = 4)
Experimental: as §1
At 24 h post-dose, some treatment groups reported lower levels of novel ionizable lipid in mouse liver compared to the benchmark (Tables 28-31).

[6] = system: EGFP expression in the liver; assay: EGFP expression in liver after intravenous EGFP mRNA LNP (ELISA); details: 0.5 mg/kg IV, 24 h post-IV administration, BALB/c mice (n = 4)
[7] = Table 18, female BALB/c mice (n = 4)

CCCCCCCCCCC(CCCCC(=O)OCc1cc(CCCCCC)cc(CCCCCC)c1)N(CCCN(C)C)C(=O)C(CCCCCC)CCCCCCCC (stereo not drawn) [Compound 62, 3,5-Dihexylbenzyl 6-(N-(3-(dimethylamino)propyl)-2-hexyldecanamido)hexadecanoate]
Final Product % EE ([1]; Table 3): 98% | Final Product PDI ([1]; Table 3): 0.08 | Final Product Z-avg ([1]; Table 3): 67 nm | Luc Activity ([2]; Table 10): 7.84E+06 pg/g liver | Parent ionizable lipid remaining in liver, Average ([3]; Table 16, female BALB/c mice (n = 4)): 20.17 nmol/g liver

CCCCCCCCCCC(CCCCCCCC(=O)OCCC(CCCCC)CCCCC)N(CCCCCCCCC(=O)OCCC(CCCCC)CCCCC)C(=O)CCCCN(C)C (stereo not drawn) [Compound 65, 3-Pentyloctyl 9-(5-(dimethylamino)-N-(9-oxo-9-((3-pentyloctyl)oxy)nonyl)-pentanamido)-nonadecanoate]
Final Product % EE ([1]; Table 6): 98% | Final Product PDI ([1]; Table 6): 0.01 | Final Product Z-avg ([1]; Table 6): 83 nm | Luc Activity ([2]; Table 13): 3.88E+07 pg/g liver | Parent ionizable lipid remaining in liver, Average ([3]; Table 17, female mice (n = 4)): 27.84 nmol/g liver

CCCCCCCCCCC(CCCCCCCC(=O)OCC(CCCCCC)CCCCCCCC)N(CCCCCCCCC(=O)OCC(CCCCCC)CCCCCCCC)C(=O)CCCCN(C)C (stereo not drawn) [Compound 72, 2-Hexyldecyl 9-(5-(dimethylamino)-N-(9-((2-hexyldecyl)oxy)-9-oxononyl)pentanamido)-nonadecanoate]
Final Product % EE ([1]; Table 6): 99% | Final Product PDI ([1]; Table 6): 0.00 | Final Product Z-avg ([1]; Table 6): 79 nm | Luc Activity ([2]; Table 13): 2.26E+07 pg/g liver | Parent ionizable lipid remaining in liver, Average ([3]; Table 17, female mice (n = 4)): 47.56 nmol/g liver

CCCCCCCCCCC(CCCCCCCC(=O)OCCC(CCCCC)CCCCC)N(CCCCCCCC(=O)OCCC(CCCCC)CCCCC)C(=O)CCCCN(C)C (stereo not drawn) [Compound 73, 3-Pentyloctyl 9-(5-(dimethylamino)-N-(8-oxo-8-((3-pentyloctyl)oxy)octyl)-pentanamido)-nonadecanoate]
Final Product % EE ([1]; Table 7): 99% | Final Product PDI ([1]; Table 7): 0.00 | Final Product Z-avg ([1]; Table 7): 82 nm | Luc Activity ([2]; Table 14): 3.64E+07 pg/g liver | Parent ionizable lipid remaining in liver, Average [3, 7]: 31.41 nmol/g liver

CCCCCCCCCCC(CCCCCCCC(=O)OCC(CCCCCC)CCCCCCCC)N(CCCCCCCC(=O)OCC(CCCCCC)CCCCCCCC)C(=O)CCCCN(C)C (stereo not drawn) [Compound 74, 2-Hexyldecyl 9-(5-(dimethylamino)-N-(8-((2-hexyldecyl)oxy)-8-oxooctyl)-pentanamido)-nonadecanoate]
Final Product % EE ([1]; Table 7): 99% | Final Product PDI ([1]; Table 7): 0.05 | Final Product Z-avg ([1]; Table 7): 89 nm | Luc Activity ([2]; Table 14): 6.77E+07 pg/g liver | Parent ionizable lipid remaining in liver, Average [3, 7]: 17.92 nmol/g liver

CCCCCCCCCCN(C(=O)CCCN(C)C)C(CCCCCCCCC)CCCCCCC(F)C(=O)OCCC(CCCCCC)CCCCCC (stereo not drawn) [Compound 76, 3-Hexylnonyl 9-[N-decyl-4-(dimethylamino)butanamido]-2-fluorooctadecanoate]
Final Product % EE ([1]; Table 7): 98% | Final Product PDI ([1]; Table 7): 0.07 | Final Product Z-avg ([1]; Table 7): 69 nm | Luc Activity ([2]; Table 14): 2.09E+07 pg/g liver | Parent ionizable lipid remaining in liver, Average [3, 7]: 17.86 nmol/g liver

CCCCCCCCCCN(C(=O)CCCN(C)C)C(CCCCCCCCC)CCCCCCC(F)C(=O)OCC(CCCCCC)CCCCCCCC (stereo not drawn) [Compound 77, 2-Hexyldecyl 9-(N-decyl-4-(dimethylamino)butanamido)-2-fluorooctadecanoate]
Final Product % EE ([1]; Table 7): 99% | Final Product PDI ([1]; Table 7): 0.09 | Final Product Z-avg ([1]; Table 7): 63 nm | Luc Activity ([2]; Table 14): 3.26E+07 pg/g liver | Parent ionizable lipid remaining in liver, Average [3, 7]: 30.63 nmol/g liver

CCCCCCCCCCC(CCCCCCC(F)(F)C(=O)OCCC(CCCCC)CCCCC)N(CCCCCCCC(=O)OCCC(CCCCC)CCCCC)C(=O)CCCN(C)C (stereo not drawn) [Compound 87, 3-pentyloctyl 9-[4-(dimethylamino)-N-{8-oxo-8-[(3-pentyloctyl)oxy]octyl}butanamido]-2,2-difluorononadecanoate]
Final Product % EE ([1]; Table 7): 98% | Final Product PDI ([1]; Table 7): 0.05 | Final Product Z-avg ([1]; Table 7): 78 nm | Luc Activity ([2]; Table 14): 1.18E+06 pg/g liver | Parent ionizable lipid remaining in liver, Average [3, 7]: 3.23 nmol/g liver

CCCCCCCCCC(CCCCCCC(F)C(=O)OCCC(CCCCC)CCCCC)N(CCCCCCCC(=O)OCCC(CCCCC)CCCCC)C(=O)CCCN(C)C (stereo not drawn) [Compound 88, 3-pentyloctyl 9-[4-(dimethylamino)-N-{8-oxo-8-[(3-pentyloctyl)oxy]octyl}butanamido]-2-fluorooctadecanoate]
Final Product % EE ([1]; Table 7): 99% | Final Product PDI ([1]; Table 7): 0.04 | Final Product Z-avg ([1]; Table 7): 72 nm | Luc Activity ([2]; Table 14): 1.64E+07 pg/g liver | Parent ionizable lipid remaining in liver, Average [3, 7]: 7.88 nmol/g liver

CCCCCCCCCCC(CCCCCCC(=O)OCCC(CCCCC)CCCCC)N(CCCCCCCCCC)C(=O)CCCCN1CCCC1 (stereo not drawn) [Compound 89, 3-Pentyloctyl 8-(N-decyl-5-(pyrrolidin-1-yl)pentanamido)octadecanoate]
Final Product % EE ([4]; Table 20): 99% | Final Product PDI ([4]; Table 20): 0.03 | Final Product Z-avg ([4]; Table 20): 83 nm | Parent ionizable lipid remaining in liver, Average ([5]; Table 28): 4.32 nmol/g liver | EGFP ([6]; Table 24): 2.01E+07 pg/g liver

CCCCCCCCCCC(CCCCCCC(=O)OCCC(CCCCCC)CCCCCC)N(CCCCCCCCCC)C(=O)CCCCN1CCCC1 (stereo not drawn) [Compound 90, 3-Hexylnonyl 8-(N-decyl-5-(pyrrolidin-1-yl)pentanamido)octadecanoate]
Final Product % EE ([4]; Table 20): 99% | Final Product PDI ([4]; Table 20): 0.07 | Final Product Z-avg ([4]; Table 20): 79 nm | Parent ionizable lipid remaining in liver, Average ([5]; Table 28): 13.37 nmol/g liver | EGFP ([6]; Table 24): 2.12E+07 pg/g liver

CCCCCCCCCCC(CCCCCCC(=O)OCCC(CCCCCCC)CCCCCCC)N(CCCCCCCCCC)C(=O)CCCCN1CCCC1 (stereo not drawn) [Compound 91, 3-Heptyldecyl 8-(N-decyl-5-(pyrrolidin-1-yl)pentanamido)octadecanoate]
Final Product % EE ([4]; Table 20): 99% | Final Product PDI ([4]; Table 20): 0.03 | Final Product Z-avg ([4]; Table 20): 85 nm | Parent ionizable lipid remaining in liver, Average ([5]; Table 28): 18.58 nmol/g liver | EGFP ([6]; Table 24): 3.15E+07 pg/g liver

CCCCCCCCCCN(C(=O)CCCN(C)C)C(CCCCCCCCC)CCCCCCC(F)(F)C(=O)OC(CCCCCC)CCCCCC (stereo not drawn) [Compound 92, Tridecan-7-yl 9-(N-decyl-4-(dimethylamino)butanamido)-2,2-difluorooctadecanoate]
Final Product % EE ([4]; Table 21): 99% | Final Product PDI ([4]; Table 21): 0.09 | Final Product Z-avg ([4]; Table 21): 71 nm | Parent ionizable lipid remaining in liver, Average ([5]; Table 29): 8.83 nmol/g liver | EGFP ([6]; Table 25): 6.34E+05 pg/g liver

CCCCCCCCCCN(C(=O)CCCN(C)C)C(CCCCCCCCC)CCCCCCC(F)(F)C(=O)OC(CCCCCCC)CCCCCCC (stereo not drawn) [Compound 93, Pentadecan-8-yl 9-(N-decyl-4-(dimethylamino)butanamido)-2,2-difluorooctadecanoate]
Final Product % EE ([4]; Table 21): 98% | Final Product PDI ([4]; Table 21): 0.02 | Final Product Z-avg ([4]; Table 21): 69 nm | Parent ionizable lipid remaining in liver, Average ([5]; Table 29): 24.61 nmol/g liver | EGFP ([6]; Table 25): 1.77E+05 pg/g liver

CCCCCC/C=C\CCON(C(=O)CCCCN(C)C)C(CCCCCCCCCC)CCCCCCC(=O)OCCC(CCCCC)CCCCC (stereo not drawn) [Compound 94, 3-Pentyloctyl (Z)-8-(N-(dec-3-en-1-yloxy)-5-(dimethylamino)pentanamido)octadecanoate]
Final Product % EE ([4]; Table 21): 98% | Final Product PDI ([4]; Table 21): 0.06 | Final Product Z-avg ([4]; Table 21): 83 nm | Parent ionizable lipid remaining in liver, Average ([5]; Table 29): 6.57 nmol/g liver | EGFP ([6]; Table 25): 1.20E+06 pg/g liver
